Data taken from article PMC10303271, “Synthesis and Receptor Binding Studies of α5 GABAAR Selective Novel Imidazodiazepines Targeted for Psychiatric and Cognitive Disorders” (Molecules, 2023).
Read-outs that look alike come from different tables or passages of the source.

What was measured:
[1] = target: kappa opioid receptors (KOR) (Homo sapiens, UniProt P41145); experiment: PDSP radioligand binding at KOR; details: for inhibition at 10 µM: 1.5 h
Excerpt: Opioid receptors are a family of inhibitory G-coupled protein receptors where opioids act as the ligand. The kappa opioid receptors (KOR), µ and δ opioid receptors (MOR and DOR), and nociception opioid receptor (NOP) fall under the family of opioids receptors. It has been reported that oxadiazole imidazodiazepines can mediate analgesic and anti-inflammatory properties mediated also by the κ opioid receptor (KOR). The binding at KOR is usually silent. The affinities of the test compounds for KOR, DOR, and MOR were determined using radioligand binding assays at a screening concentration of 10,000 nM in collaboration with the National Institute of Mental Health’s Psychoactive Drug Screening Program (PDSP), as mentioned before. Concentration-dependent experiments were conducted to determine Ki values for the compounds that exceeded more than 50% radioligand displacement in primary binding assays.
(§1) The NIMH PDSP assay protocol book [https://kidbdev.med.unc.edu/databases/PDSP%20Protocols%20II%202013-03-28.pdf accessed on 23 April 2023]. describes the protocols for primary and secondary radio-ligand binding assays. These assays were carried out in a final volume of 125 µL per well in the appropriate binding buffer.
(§2) The binding of a ligand to a receptor, ion channel, or transporter was determined in the […] of 10 µM of the appropriate reference compound. […] Plates were incubated in the dark for 90 min at rt, and the reactions were stopped by vacuum filtration onto 0.3% polyethyleneimine (PEI) soaked 96-well filter mats using a 96-well Filtermateharvester. This was followed by three washes with cold PBS buffer. Radioactivity was then counted on a Microbeta counter. Nonlinear regression was used to analyze the data with N = 6 replicates.

H1 = target: T1, H1 (Homo sapiens, UniProt P35367); experiment: PDSP primary binding H1; details: primary binding, 10,000 nM; last figure of the line = mean of the 4 before it; read-out: H1, PDSP raw data, mean
T1 construct: purchased NIMH Psychoactive Drug Screening Program (PDSP)
Protocol: (§3) To determine if any off-target receptor-binding effects are present, all the novel ligands were sent to the National Institute of Mental Health (NIMH), Psychoactive Drug Screening Program (PDSP). The ligands were screened over a panel of 47 receptors, ion channels, and transporters to determine any other possible interactions with […]. The hERG-binding was also determined. […] No binding of the test compounds to calcium channels was observed. […] It is necessary to screen the compounds for hERG-binding during the early process of drug discovery. The unintentional binding of many drugs to hERG can cause blockade of hERG K+ channels in the heart, which can cause many side effects including cardiac arrhythmias and sudden death. […] All of the α5 imidazodiazepines were tested for hERG-binding.
as §1, §2

Beta1 = target: T2, Beta1 (Homo sapiens, UniProt P08588); experiment: PDSP primary binding Beta1; details: 1.5 h; primary binding, 10,000 nM; last figure of the line = mean of the 4 before it; read-out: Beta1, PDSP raw data, mean
T2 construct: purchased NIMH Psychoactive Drug Screening Program (PDSP)
Protocol: as §3, §1, §2

Alpha2B = target: T3, Alpha2B (Homo sapiens, UniProt P18089); experiment: PDSP primary binding Alpha2B; details: 1.5 h; primary binding, 10,000 nM; last figure of the line = mean of the 4 before it; read-out: Alpha2B, PDSP raw data, mean
T3 construct: purchased NIMH Psychoactive Drug Screening Program (PDSP)
T3 sequence (P18089 1-450): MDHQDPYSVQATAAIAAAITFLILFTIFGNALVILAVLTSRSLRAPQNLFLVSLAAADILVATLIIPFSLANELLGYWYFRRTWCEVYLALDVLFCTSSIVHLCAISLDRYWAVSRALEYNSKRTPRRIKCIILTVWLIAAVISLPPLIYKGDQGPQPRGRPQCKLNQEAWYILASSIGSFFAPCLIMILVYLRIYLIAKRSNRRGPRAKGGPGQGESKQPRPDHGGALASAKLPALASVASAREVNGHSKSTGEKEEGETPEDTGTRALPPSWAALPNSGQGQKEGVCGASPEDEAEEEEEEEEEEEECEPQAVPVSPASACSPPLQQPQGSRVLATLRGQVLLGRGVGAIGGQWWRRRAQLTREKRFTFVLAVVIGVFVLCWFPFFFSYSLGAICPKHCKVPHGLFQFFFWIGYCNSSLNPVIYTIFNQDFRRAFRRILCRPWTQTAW
Protocol: as §3, §1, §2

A1 = target: T4, A1 (Homo sapiens, UniProt P30542); experiment: PDSP primary binding A1; details: 1.5 h; primary binding, 10,000 nM; last figure of the line = mean of the 4 before it; read-out: A1, PDSP raw data, mean
T4 construct: purchased NIMH Psychoactive Drug Screening Program (PDSP)
T4 sequence (P30542 1-326): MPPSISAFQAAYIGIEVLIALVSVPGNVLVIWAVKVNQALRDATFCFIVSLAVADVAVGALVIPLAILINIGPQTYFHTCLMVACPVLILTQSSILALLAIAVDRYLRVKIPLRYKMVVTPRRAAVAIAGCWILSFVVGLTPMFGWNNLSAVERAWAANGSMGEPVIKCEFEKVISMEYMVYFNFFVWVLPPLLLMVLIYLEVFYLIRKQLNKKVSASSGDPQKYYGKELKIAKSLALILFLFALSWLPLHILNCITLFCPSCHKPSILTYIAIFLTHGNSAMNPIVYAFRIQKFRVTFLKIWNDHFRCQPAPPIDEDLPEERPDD
Protocol: as §3, §1, §2

5-HT5A = target: T5, 5-HT5A (Homo sapiens, UniProt P47898); experiment: PDSP primary binding 5-HT5A; details: 1.5 h; primary binding, 10,000 nM; last figure of the line = mean of the 4 before it; read-out: 5-HT5A, PDSP raw data, mean
T5 construct: purchased NIMH Psychoactive Drug Screening Program (PDSP)
Protocol: as §3, §1, §2

V2 = target: T6, V2 (Homo sapiens, UniProt P30518); experiment: PDSP primary binding V2; details: primary binding, 10,000 nM; last figure of the line = mean of the 4 before it; read-out: V2, PDSP raw data, mean
T6 construct: purchased NIMH Psychoactive Drug Screening Program (PDSP)
Protocol: as §3, §1, §2

Alpha4Beta4 = target: T7, Alpha4Beta4 (Rattus norvegicus, UniProt P09483+P12392); experiment: PDSP primary binding Alpha4Beta4; details: primary binding, 10,000 nM; last figure of the line = mean of the 4 before it; read-out: Alpha4Beta4, PDSP raw data, mean
T7 construct: purchased NIMH Psychoactive Drug Screening Program (PDSP)
Protocol: as §3, §1, §2

M3 = target: T8, M3 (Homo sapiens, UniProt P20309); experiment: PDSP primary binding M3; details: primary binding, 10,000 nM; last figure of the line = mean of the 4 before it; read-out: M3, PDSP raw data, mean
T8 construct: purchased NIMH Psychoactive Drug Screening Program (PDSP)
Protocol: as §3, §1, §2

5-HT1D = target: T9, 5-HT1D (Homo sapiens, UniProt P28221); experiment: PDSP primary binding 5-HT1D; details: 1.5 h; primary binding, 10,000 nM; last figure of the line = mean of the 4 before it; read-out: 5-HT1D, PDSP raw data, mean
T9 construct: purchased NIMH Psychoactive Drug Screening Program (PDSP)
Protocol: as §3, §1, §2

[2] = at 10,000 nM, N = 5, [3H]-U69593 0.83 nM, read-out: Primary Binding %KOR
[3] = primary binding, 10,000 nM, last figure of the line = mean of the 4 before it, read-out: KOR, PDSP raw data, mean

T8 sequence (P20309 whole entry): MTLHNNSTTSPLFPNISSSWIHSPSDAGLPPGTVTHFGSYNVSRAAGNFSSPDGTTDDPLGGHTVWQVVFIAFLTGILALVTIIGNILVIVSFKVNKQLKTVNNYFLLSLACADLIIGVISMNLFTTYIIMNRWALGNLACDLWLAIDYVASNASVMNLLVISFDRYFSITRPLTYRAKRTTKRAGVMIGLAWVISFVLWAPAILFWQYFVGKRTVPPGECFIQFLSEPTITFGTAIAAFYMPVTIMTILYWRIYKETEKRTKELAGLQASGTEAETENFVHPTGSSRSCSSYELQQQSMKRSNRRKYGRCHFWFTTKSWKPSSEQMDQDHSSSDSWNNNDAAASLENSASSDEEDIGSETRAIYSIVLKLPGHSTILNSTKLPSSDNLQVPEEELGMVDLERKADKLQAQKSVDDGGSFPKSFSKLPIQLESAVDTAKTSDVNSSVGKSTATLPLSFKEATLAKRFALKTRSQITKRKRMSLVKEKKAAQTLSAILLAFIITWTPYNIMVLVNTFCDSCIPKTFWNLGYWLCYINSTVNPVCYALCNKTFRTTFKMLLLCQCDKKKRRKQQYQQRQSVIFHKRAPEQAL
T5 sequence (P47898 whole entry): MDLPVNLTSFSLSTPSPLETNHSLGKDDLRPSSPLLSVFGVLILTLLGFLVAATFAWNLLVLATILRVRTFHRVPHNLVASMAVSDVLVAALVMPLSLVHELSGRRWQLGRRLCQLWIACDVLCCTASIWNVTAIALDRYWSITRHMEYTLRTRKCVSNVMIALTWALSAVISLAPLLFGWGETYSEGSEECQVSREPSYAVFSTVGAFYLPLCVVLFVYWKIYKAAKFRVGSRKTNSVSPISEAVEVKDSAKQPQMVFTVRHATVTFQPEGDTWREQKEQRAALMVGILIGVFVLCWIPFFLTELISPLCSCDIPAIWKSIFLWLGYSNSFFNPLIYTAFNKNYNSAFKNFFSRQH
T7 sequence (P09483 31-630): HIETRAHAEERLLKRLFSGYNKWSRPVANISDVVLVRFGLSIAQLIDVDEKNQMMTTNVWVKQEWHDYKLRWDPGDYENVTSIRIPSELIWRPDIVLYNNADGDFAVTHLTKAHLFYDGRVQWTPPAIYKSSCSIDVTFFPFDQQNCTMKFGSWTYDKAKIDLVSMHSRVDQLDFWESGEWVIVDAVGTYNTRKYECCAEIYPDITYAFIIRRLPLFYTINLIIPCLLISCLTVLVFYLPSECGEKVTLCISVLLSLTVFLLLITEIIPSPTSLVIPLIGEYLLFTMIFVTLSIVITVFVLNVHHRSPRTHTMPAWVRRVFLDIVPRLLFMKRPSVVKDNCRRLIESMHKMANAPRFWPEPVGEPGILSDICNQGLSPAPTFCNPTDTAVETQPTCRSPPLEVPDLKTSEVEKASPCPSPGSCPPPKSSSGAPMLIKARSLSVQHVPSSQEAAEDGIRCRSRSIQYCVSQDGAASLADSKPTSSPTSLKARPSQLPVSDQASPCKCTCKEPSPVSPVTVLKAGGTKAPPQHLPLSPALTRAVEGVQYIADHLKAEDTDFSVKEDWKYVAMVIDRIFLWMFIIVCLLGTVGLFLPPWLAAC
T7 sequence (P12392 21-495): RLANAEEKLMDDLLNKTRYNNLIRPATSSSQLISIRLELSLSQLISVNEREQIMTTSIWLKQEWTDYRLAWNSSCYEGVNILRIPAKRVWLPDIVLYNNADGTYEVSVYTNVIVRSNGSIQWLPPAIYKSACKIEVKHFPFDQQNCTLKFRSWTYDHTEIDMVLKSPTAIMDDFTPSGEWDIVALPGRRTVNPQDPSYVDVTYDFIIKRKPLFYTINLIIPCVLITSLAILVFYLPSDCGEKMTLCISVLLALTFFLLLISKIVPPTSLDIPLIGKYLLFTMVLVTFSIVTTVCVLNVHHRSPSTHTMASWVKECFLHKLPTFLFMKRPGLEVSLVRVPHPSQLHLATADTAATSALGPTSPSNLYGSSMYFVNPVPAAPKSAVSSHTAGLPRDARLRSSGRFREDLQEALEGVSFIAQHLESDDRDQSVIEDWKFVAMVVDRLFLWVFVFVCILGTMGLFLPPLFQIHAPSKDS
T1 sequence (P35367 whole entry): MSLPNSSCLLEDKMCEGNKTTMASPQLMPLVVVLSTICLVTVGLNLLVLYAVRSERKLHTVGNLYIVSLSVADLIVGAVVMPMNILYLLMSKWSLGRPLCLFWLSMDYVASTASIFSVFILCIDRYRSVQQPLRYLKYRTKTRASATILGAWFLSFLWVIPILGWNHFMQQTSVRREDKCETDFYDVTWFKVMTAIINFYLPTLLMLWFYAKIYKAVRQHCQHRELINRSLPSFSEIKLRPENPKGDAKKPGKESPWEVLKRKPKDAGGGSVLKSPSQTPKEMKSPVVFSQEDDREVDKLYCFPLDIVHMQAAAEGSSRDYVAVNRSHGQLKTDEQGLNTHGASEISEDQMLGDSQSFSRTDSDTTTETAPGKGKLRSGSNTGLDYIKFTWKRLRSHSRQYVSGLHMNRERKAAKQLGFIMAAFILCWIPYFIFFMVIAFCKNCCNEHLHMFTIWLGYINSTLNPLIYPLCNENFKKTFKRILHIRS
T6 sequence (P30518 whole entry): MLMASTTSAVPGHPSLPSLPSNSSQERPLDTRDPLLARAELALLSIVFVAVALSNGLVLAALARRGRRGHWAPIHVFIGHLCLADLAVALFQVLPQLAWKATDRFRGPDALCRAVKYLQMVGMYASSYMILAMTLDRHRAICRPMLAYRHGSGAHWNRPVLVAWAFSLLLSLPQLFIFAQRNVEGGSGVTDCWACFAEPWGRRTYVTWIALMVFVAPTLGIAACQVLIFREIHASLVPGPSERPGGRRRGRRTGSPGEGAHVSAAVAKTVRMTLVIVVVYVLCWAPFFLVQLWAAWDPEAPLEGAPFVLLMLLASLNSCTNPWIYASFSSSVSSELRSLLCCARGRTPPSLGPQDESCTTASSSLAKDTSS
T9 sequence (P28221 whole entry): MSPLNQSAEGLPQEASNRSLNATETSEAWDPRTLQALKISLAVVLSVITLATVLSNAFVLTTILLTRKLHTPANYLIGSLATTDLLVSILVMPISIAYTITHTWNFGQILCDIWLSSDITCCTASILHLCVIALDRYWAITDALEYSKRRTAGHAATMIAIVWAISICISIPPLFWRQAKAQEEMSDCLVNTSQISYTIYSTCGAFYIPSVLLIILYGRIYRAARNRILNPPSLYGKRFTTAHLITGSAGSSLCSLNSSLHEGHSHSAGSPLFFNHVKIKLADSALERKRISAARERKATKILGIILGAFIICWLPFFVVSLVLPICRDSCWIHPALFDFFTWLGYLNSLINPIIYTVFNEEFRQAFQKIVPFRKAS
Chain of kappa opioid receptors (KOR) (P41145 whole entry): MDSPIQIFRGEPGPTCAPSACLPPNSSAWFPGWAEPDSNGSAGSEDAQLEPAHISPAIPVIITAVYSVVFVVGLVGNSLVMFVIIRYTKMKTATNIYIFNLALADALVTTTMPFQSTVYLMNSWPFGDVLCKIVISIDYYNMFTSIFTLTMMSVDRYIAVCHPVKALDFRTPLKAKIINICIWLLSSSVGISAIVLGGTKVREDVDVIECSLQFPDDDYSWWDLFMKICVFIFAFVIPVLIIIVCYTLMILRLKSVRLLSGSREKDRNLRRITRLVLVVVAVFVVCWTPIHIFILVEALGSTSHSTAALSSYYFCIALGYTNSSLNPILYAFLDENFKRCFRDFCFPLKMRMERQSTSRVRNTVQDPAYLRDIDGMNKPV
T2 sequence (P08588 whole entry): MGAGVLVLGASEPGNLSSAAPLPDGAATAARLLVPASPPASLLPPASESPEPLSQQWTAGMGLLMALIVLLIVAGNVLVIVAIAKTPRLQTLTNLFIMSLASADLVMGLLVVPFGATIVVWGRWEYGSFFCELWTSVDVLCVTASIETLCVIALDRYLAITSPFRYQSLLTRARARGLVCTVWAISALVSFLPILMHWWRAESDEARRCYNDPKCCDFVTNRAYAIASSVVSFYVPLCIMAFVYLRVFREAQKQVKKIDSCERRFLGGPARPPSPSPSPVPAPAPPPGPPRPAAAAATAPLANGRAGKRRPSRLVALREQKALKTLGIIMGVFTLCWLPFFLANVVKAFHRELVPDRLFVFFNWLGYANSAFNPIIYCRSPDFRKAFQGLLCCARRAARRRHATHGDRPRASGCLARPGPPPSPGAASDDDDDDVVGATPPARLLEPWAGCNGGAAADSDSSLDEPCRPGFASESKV

SMILES | Ki [1] | inhibition at 10 µM [1, 2] | inhibition at 10 µM [1, 3] | inhibition at 10 µM (H1) | inhibition at 10 µM (Beta1) | inhibition at 10 µM (Alpha2B) | inhibition at 10 µM (A1) | inhibition at 10 µM (5-HT5A) | inhibition at 10 µM (V2) | inhibition at 10 µM (Alpha4Beta4) | inhibition at 10 µM (M3) | inhibition at 10 µM (5-HT1D)
CC(C)c1noc(-c2ncn3c2[C@@H](C)N=C(c2ccccc2F)c2cc(Cl)ccc2-3)n1 [Compound 37, (R)-5-(8-Chloro-6-(2′-fluorophenyl)-4-methyl-4H-benzo[f]imidazo[1,5-a][1,4]diazepin-3-yl)-3-isopropyl-1,2,4-oxadiazole] | 46.3 ± 4.93 nM | 99.2 ± 1.75% | 99.2% | 59% | 8.14% | 18.5% | 52.2% | -2.71% | -7.17% | 12.9% | 15.6% | 9.73%
C[C@H]1N=C(c2ccccc2F)c2cc(Cl)ccc2-n2cnc(-c3nc(C4CC4)no3)c21 [Compound 38, (R)-5-(8-Chloro-6-(2′-fluorophenyl)-4-methyl-4H-benzo[f]imidazo[1,5-a][1,4]diazepin-3-yl)-3-cyclopropyl-1,2,4-oxadiazole] | 82.2 ± 2.43 nM | 98.9 ± 1.6% | 98.9% | 58.4% | 9.95% | 17.6% | 55.5% | -2.84% | 5.48% | 8.62% | 19.3% | 7.31%
C#Cc1ccc2c(c1)C(c1ccccc1Cl)=N[C@H](C)c1c(C(=O)NC)ncn1-2 [Compound 21, (R)-6-(2′-Chlorophenyl)-8-ethynyl-N,4-dimethyl-4H-benzo[f]imidazo[1,5-a][1,4]diazepine-3-carboxamide] | 660 ± 159 nM | 69.6 ± 6.01% | 69.6% | -9.7% | 13.1% | -2.45% | -13.3% | 2.76% | 43% | 14.4% | -12.9% | -9.02%
C#Cc1ccc2c(c1)C(c1ccccc1Cl)=N[C@H](C)c1c(C(=O)N(C)CC)ncn1-2 [Compound 29] | 392 ± 78.8 nM | 69.1 ± 29.1% | 69.1% | -1.99% | 8.7% | 7.23% | -6.38% | -3.73% | 21.9% | -3.3% | -8.9% | -13.1%
CCc1noc(-c2ncn3c2[C@@H](C)N=C(c2ccccc2F)c2cc(C4CC4)ccc2-3)n1 [Compound 46, (R)-5-(8-Cyclopropyl-6-(2′-fluorophenyl)-4-methyl-4H-benzo[f]imidazo[1,5-a][1,4]diazepin-3-yl)-3-ethyl-1,2,4-oxadiazole] |  |  | 91.3% | 33.7% | -26.4% | 44.2% | 30.9% | 23.6% | 48.4% | 14.2% | 8.95% | 17.7%
CCc1noc(-c2ncn3c2CN=C(c2ccccc2F)c2cc(C4CC4)ccc2-3)n1 [Compound 44, 5-(8-Cyclopropyl-6-(2′-fluorophenyl)-4H-benzo[f]imidazo[1,5-a][1,4]diazepin-3-yl)-3-ethyl-1,2,4-oxadiazole] | 207 ± 33.1 nM | 96.3 ± 2.29% | 96.3% | 16.3% | -5.19% | 36.6% | 48.2% | 5.08% | 27.7% | 10.6% | -0.6% | 67.4%
CCc1noc(-c2ncn3c2[C@@H](C)N=C(c2ccccc2F)c2cc(Cl)ccc2-3)n1 [Compound 36, (R)-5-(8-Chloro-6-(2′-fluorophenyl)-4-methyl-4H-benzo[f]imidazo[1,5-a][1,4]diazepin-3-yl)-3-ethyl-1,2,4-oxadiazole] | 104 ± 7.58 nM | 96.4 ± 3% | 96.4% | 7.7% | -14.7% | 16.6% | 67.9% | -1.84% | 12.6% | 10.2% | -3.98% | -1.16%
CCc1noc(-c2ncn3c2[C@@H](C)N=C(c2ccccc2F)c2cc(-c4ccccc4)ccc2-3)n1 [Compound 35, (R)-3-Ethyl-5-(6-(2′-fluorophenyl)-4-methyl-8-phenyl-4H-benzo[f]imidazo[1,5-a][1,4]diazepin-3-yl)-1,2,4-oxadiazole] |  | 38 ± 1.73% | 38% | 10.5% | 0.99% | 45.7% | 27.1% | 19.5% | 37.4% | 17.9% | 9.75% | 6.66%
C#Cc1ccc2c(c1)C(c1ccccc1F)=N[C@H](C)c1c(C(=S)N(C)C)ncn1-2 [Compound 33, (R)-8-Ethynyl-6-(2′-fluorophenyl)-N,N,4-trimethyl-4H-benzo[f]imidazo[1,5-a][1,4]diazepine-3-carbothioamide] | 400 ± 82 nM | 53.6 ± 7.24% | 53.6% | -10.4% | -15.8% | 68.9% | 25.9% | 53.6% | 19.7% | 1.99% | 3.03% | -3.41%
